These are literature values, as cited in patent publication US20080153785A1, “Pharmaceutical Compositions Containing Biophosphonate for Improving Oral Absorption” (CHONG KUN DANG PHARMACEUTICAL CORP., priority 2005, published 2008).

The conditions of this data set: long-term treatment, normally taken.

`NCCCC(O)(P(=O)(O)O)P(=O)(O)O` [alendronate, 4-Amino-1-hydroxybutylidene-1,1-biphosphonate]: the “incidence of heartburn or epigastric pain” value was “about 36 % of patients”.
